Data on 14 compounds can be found in patent US20220402948A1, “EGFR INHIBITOR, COMPOSITION AND PREPARATION METHOD THEREFOR” (BETTA PHARMACEUTICALS CO., LTD., priority 2019, published 2022).

For one assay, the target named is EGFR WT (Homo sapiens, UniProt P00533). Nature of the assay: EGFR WT kinase test (mobility variation analysis, Caliper EZ Reader). It is filed as biochemical. The following applies: kinase enzymatic activity, Table 1. In outline:
(§1)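 Read-out is substrate-to-product conversion by mobility shift, stopped after incubation at room temperature with ATP and substrate, following a 10-minute room-temperature compound–enzyme pre-incubation. IC50 obtained by four-parameter variable-slope fitting of inhibition normalized between enzyme-free and uninhibited controls.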

The target in another assay is IGF1R (Homo sapiens, UniProt P08069). Nature of the assay: IGF1R kinase test (mobility variation analysis, Caliper EZ Reader). It is filed as biochemical. The following applies: kinase enzymatic activity, Table 1; read-out: EGFR IGF1R IC50. In outline:
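Mobility-shift readout of substrate conversion, normalised to positive (no compound) and negative (no kinase) controls, gives % inhibition and IC50 by four-parameter fit. Compounds, 3-fold dilutions over 10 concentrations starting at 3000 nM, preincubated 10 min with kinase before ATP/substrate start; room temperature.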

Another assay has as its system A431. Nature of the assay: A431 cell proliferation assay (CellTiter Glo, 72 hours). It is filed as cell-based. The following applies: Homo sapiens, A-431, 72 h, cell proliferation, A431, 72 hours, Table 2; read-out: A431 IC50. In outline:
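Luminescence (CellTiter-Glo) after 72 h treatment gives viability, fitted by nonlinear regression to yield IC50. Cells seeded at 2000 per well; nine 3-fold concentrations from 1000 nM, DMSO final 0.1% (0.5% for certain compounds).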

For assay [1], the target named is Ba/F3-EGFR wild-type cell line (Homo sapiens, UniProt P00533). Nature of the assay: Ba/F3-EGFR wild-type cell proliferation assay (CellTiter Glo, 72 hours). It is filed as cell-based. The following applies: Table 2, read-out: EGFR WT IC50. In outline:
(§2)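 Ba/F3 cells stably overexpressing wild-type EGFR or EGFR Δ19del/T790M/C797S were seeded at 2000 cells/well and incubated 72 h with compound. Viability was read by CellTiter-Glo luminescence, and IC50 came from a four-parameter logistic fit of signal against log concentration.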

In assay [2] the target is Ba/F3 cells with EGFR Δ19del/T790M/C797S mutation gene stably overexpressed (Homo sapiens, UniProt P00533, T790M/C797S, cells depend on it, form not given). The experiment in a line: Ba/F3-Δ19del/T790M/C797S cell proliferation assay (CellTiter Glo, 72 hours). In kind it is cell-based. The following applies: Table 2, read-out: EGFR Δ19del/T790M/C797S IC50. Summed up:
as §2

A further assay deals with EGFRΔ19del/T790M/C797S (Homo sapiens, UniProt P00533, T790M/C797S, form not given). Nature of the assay: EGFR Δ19del/T790M/C797S kinase test (mobility variation analysis, Caliper EZ Reader). It is filed as biochemical. The following applies: kinase enzymatic activity, Table 1. Summed up: as §1
Chain of EGFRΔ19del/T790M/C797S (P00533 with tags, fused parts or gaps DEL746-750/T790M/C797S, form open): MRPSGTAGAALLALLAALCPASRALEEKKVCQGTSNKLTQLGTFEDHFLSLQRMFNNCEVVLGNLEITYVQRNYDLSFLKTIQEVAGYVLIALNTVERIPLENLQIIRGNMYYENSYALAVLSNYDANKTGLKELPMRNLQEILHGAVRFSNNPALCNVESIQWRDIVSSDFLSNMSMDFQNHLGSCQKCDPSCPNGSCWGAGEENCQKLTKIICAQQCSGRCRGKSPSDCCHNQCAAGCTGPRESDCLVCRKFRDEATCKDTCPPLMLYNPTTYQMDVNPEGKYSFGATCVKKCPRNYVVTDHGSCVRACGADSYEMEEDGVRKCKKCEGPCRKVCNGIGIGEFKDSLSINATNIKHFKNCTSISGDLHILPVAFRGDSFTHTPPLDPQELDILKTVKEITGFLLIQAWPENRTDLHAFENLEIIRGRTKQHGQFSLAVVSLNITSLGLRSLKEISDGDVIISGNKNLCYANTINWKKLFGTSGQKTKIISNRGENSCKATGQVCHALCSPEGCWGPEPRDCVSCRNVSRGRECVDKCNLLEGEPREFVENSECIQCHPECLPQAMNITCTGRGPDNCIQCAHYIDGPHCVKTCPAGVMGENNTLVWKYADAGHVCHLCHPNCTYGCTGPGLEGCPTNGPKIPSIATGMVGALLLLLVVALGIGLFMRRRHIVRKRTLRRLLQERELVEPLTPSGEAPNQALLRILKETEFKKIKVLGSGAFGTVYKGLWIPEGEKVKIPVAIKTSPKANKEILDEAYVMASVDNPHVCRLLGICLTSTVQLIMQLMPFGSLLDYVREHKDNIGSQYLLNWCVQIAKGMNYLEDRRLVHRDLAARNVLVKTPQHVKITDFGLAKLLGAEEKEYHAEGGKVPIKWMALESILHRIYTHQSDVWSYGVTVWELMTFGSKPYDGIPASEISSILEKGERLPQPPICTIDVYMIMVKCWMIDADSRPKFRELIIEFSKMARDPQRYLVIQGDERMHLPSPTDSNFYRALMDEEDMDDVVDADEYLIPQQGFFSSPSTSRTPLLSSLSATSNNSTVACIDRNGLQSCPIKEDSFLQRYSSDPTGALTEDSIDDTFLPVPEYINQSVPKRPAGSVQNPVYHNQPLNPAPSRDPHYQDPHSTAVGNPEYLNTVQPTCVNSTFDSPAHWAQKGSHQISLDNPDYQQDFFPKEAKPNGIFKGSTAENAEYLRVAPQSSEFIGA

The structures appear in SMILES notation.

Chain of Ba/F3-EGFR wild-type cell line (P00533 whole entry, stated change not applied): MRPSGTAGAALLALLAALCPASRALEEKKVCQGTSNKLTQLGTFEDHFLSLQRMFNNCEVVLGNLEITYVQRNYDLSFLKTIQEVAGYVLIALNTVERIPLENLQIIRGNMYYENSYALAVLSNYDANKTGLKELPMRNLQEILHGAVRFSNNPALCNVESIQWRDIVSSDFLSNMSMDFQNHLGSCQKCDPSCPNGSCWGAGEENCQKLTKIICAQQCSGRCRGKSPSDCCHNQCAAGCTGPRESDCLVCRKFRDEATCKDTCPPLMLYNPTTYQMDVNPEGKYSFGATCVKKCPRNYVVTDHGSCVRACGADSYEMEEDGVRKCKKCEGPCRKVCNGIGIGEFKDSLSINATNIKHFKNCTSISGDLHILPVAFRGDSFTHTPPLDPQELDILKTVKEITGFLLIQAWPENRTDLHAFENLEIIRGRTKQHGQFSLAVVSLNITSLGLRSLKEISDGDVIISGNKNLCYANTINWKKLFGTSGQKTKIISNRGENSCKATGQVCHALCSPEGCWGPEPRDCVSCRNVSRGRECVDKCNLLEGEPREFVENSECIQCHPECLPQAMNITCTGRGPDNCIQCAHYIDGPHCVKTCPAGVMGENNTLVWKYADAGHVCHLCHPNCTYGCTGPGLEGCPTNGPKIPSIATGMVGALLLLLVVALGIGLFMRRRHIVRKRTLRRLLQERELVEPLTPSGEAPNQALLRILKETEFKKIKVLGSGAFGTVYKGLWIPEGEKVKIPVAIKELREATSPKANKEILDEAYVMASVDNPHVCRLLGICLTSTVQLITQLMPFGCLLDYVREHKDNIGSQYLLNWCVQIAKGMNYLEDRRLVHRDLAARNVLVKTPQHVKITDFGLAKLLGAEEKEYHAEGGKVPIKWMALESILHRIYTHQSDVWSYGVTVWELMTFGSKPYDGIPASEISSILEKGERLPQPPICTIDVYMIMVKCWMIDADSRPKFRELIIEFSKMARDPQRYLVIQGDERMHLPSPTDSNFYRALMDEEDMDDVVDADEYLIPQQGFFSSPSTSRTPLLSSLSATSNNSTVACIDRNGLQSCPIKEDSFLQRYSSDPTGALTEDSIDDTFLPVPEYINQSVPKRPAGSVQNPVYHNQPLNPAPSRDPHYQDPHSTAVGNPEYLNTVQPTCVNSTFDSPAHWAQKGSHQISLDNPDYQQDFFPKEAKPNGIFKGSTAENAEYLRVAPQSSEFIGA
Chain of EGFR WT (P00533 25-1210): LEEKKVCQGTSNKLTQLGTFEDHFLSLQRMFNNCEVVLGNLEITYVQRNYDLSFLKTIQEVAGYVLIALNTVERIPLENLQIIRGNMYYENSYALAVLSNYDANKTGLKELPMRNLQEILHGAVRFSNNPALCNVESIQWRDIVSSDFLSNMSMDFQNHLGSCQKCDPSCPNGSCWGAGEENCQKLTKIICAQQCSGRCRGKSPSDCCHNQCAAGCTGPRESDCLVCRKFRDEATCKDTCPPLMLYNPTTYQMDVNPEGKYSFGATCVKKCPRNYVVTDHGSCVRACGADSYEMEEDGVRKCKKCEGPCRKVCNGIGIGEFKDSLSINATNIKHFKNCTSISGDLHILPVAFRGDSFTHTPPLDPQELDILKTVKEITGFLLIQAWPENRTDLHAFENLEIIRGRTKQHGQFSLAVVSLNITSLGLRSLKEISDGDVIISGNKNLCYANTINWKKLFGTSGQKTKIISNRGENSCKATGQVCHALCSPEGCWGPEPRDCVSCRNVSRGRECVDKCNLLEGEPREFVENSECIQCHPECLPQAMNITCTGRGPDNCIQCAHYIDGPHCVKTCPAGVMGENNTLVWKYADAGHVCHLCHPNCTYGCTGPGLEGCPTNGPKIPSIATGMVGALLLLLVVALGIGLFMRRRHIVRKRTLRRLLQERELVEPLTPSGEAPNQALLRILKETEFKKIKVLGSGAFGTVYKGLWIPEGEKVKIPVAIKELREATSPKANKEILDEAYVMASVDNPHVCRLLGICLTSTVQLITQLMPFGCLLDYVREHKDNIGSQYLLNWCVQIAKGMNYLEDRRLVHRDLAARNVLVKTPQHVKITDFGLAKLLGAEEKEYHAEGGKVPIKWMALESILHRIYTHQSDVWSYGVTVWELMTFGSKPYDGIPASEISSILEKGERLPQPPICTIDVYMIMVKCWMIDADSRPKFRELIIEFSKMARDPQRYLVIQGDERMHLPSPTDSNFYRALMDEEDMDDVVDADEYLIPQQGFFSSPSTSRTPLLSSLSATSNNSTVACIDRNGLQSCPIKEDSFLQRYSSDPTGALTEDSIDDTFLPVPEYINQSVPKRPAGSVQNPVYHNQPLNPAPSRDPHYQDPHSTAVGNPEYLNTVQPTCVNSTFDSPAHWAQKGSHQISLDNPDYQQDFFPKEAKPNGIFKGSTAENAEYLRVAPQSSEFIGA
Chain of IGF1R (P08069 31-1367, species assumed): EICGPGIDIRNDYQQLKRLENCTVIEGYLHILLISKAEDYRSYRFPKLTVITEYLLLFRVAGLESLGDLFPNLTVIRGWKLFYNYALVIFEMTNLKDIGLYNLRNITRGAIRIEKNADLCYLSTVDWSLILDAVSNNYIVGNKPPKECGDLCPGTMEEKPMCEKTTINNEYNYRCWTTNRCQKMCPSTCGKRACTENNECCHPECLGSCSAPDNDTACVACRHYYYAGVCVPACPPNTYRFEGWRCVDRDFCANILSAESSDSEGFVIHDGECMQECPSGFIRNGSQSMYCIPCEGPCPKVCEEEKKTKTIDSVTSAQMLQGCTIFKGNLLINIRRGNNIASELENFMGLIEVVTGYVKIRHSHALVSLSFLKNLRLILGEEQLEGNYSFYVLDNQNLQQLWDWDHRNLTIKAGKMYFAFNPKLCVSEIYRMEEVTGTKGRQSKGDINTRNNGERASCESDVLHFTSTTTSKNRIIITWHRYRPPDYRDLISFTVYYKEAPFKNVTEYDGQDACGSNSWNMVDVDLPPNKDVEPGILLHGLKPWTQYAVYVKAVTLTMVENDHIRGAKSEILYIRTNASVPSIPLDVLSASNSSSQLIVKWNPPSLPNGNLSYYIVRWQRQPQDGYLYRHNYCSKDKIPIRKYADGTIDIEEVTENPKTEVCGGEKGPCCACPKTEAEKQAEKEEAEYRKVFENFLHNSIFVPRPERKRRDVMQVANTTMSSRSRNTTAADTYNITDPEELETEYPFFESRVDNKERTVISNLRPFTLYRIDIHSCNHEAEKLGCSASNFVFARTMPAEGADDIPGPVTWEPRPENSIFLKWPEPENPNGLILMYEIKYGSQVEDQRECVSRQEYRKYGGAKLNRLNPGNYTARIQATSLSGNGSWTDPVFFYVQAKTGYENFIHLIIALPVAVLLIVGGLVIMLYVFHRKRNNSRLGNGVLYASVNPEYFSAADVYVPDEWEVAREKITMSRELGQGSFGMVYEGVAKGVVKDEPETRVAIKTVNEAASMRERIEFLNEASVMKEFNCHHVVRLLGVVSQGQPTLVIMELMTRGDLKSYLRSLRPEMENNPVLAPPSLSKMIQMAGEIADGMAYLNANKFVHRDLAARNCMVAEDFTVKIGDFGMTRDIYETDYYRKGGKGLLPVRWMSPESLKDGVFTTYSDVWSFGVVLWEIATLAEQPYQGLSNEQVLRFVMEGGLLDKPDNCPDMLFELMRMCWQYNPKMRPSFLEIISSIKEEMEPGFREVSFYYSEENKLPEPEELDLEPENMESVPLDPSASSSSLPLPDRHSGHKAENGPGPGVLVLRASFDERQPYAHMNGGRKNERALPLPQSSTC

For `COc1cc(Nc2ncc(Br)c(Nc3ccc(-c4ccc(C)cn4)cc3P(C)(C)=O)n2)c(C)cc1N1CCOCC1` [Compound K-032, (2-((5-Bromo-2-((5-methoxy-2-methyl-4-morpholinophenyl)amino)pyrimidin-4-yl)amino)-5-(5-methylpyridin-2-yl)phenyl)dimethylphosphine oxide], the IC50 at EGFR WT came to 0.0552 µM; at IGF1R, 0.106 µM; in the assay on A431, 1.33 µM; against EGFRΔ19del/T790M/C797S, 0.0003 µM. Also, the GI50 turned out to be 0.128 µM in assay [1] and 0.0048 µM in assay [2].
As to `COc1cc(Nc2ncc(Br)c(Nc3ccc(-c4cnc(C5CC5)cn4)cc3P(C)(C)=O)n2)c(C)cc1N1CCOCC1` [Compound K-033, (2-((5-Bromo-2-((5-methoxy-2-methyl-4-morpholinophenyl)amino)pyrimidin-4-yl)amino)-5-(5-cylopropylpyrazin-2-yl)phenyl)dimethylphosphine oxide], the half-inhibitory concentration (IC50) came to 0.0556 µM at EGFR WT, 0.121 µM on IGF1R, 1.59 µM in the assay on A431 and 0.0003 µM against EGFRΔ19del/T790M/C797S. For the same compound, the GI50 in assay [1] was 0.0635 µM; in assay [2] it was 0.0064 µM.
Consider `CCOc1cc(Nc2ncc(Br)c(Nc3ccc(-c4cnn(C)n4)c(F)c3P(C)(C)=O)n2)c(C)cc1N1CCOCC1` [Compound K-034, (6-((5-Bromo-2-((5-ethoxy-2-methyl-4-morpholinophenyl)amino)pyrimidin-4-yl)amino)-2-fluoro-3-(2-methyl-2H-1,2,3-triazol-4-yl)phenyl)dimethylphosphine oxide], for which the IC50 on EGFR WT was determined as 0.0644 µM; at IGF1R it was 0.0371 µM; with A431 it was 1.23 µM; on EGFRΔ19del/T790M/C797S, 0.0004 µM. Also, the GI50 worked out at 0.219 µM in assay [1] and 0.0209 µM in assay [2].
Regarding `CCOc1cc(Nc2ncc(Br)c(Nc3ccc(-c4ccc(C)cn4)cc3P(C)(C)=O)n2)c(C)cc1N1CCOCC1` [Compound K-035, (2-((5-Bromo-2-((5-ethoxy-2-methyl-4-morpholinophenyl)amino)pyrimidin-4-yl)amino)-5-(5-methylpyridin-2-yl)phenyl)dimethylphosphine oxide], the IC50 against EGFR WT came to 0.0428 µM; at IGF1R it was 0.0487 µM; with A431, 1.68 µM; on EGFRΔ19del/T790M/C797S it was 0.0003 µM. Also, the figures for the GI50 in assay [1] and in assay [2] were 0.145 µM and 0.0186 µM, respectively.
For the compound `COc1cc(Nc2ncc(Br)c(Nc3ccc(-c4cnn(C)n4)c(F)c3P(C)(C)=O)n2)c(C)cc1N1CC(C)OC(C)C1` (stereo not drawn) [Compound K-037, (6-((5-Bromo-2-((4-(2,6-dimethylmorpholine)-5-methoxy-2-methylphenyl)amino)pyrimidin-4-yl)amino)-2-fluoro-3-(2-methyl-2H-1,2,3-triazol-4-yl)phenyl)dimethylphosphine oxide], the IC50 turned out to be 0.125 µM on EGFR WT, 0.251 µM on IGF1R, 7.53 µM in the assay with A431 and 0.0008 µM at EGFRΔ19del/T790M/C797S. In addition, the GI50 came to 0.374 µM in assay [1] and 0.0109 µM in assay [2].
For the compound `COc1cnn(-c2ccc(Nc3nc(Nc4cc(OC)c(N5CCC(N(C)C)CC5)cc4C)ncc3Br)c(P(C)(C)=O)c2)c1` [Compound K-038, (2-((5-Bromo-2-((4-(4-(dimethylamino)piperidin-1-yl)-5-methoxy-2-methylphenyl)amino)pyrimidine-4-yl)amino)-5-(4-methoxy-1H-pyrazol-1-yl)phenyl)dimethylphosphine oxide], the IC50 was determined as 0.0192 µM against EGFR WT, 0.0561 µM on IGF1R, 1.04 µM in the assay with A431 and 0.0002 µM on EGFRΔ19del/T790M/C797S. The figures for the GI50 in assay [1] and in assay [2] were 0.114 µM and 0.0154 µM, respectively.
Regarding `COc1cnn(-c2ccc(Nc3nc(Nc4cc(OC)c(N5CCC(O)CC5)cc4C)ncc3Br)c(P(C)(C)=O)c2)c1` [Compound K-039, (2-((5-Bromo-2-((4-(4-hydroxypiperidin-1-yl)-5-methoxy-2-methylphenyl)amino)pyrimidin-4-yl)amino)-5-(4-methoxy-1H-pyrazol-1-yl)phenyl)dimethylphosphine oxide], the IC50 at EGFR WT was 0.0143 µM; on IGF1R, 0.0456 µM; in the assay with A431, above 10 µM; against EGFRΔ19del/T790M/C797S it was 0.0001 µM. Besides, the GI50 in assay [1] was 0.523 µM; in assay [2], 0.0275 µM.
Consider `CCc1cc(Nc2ncc(Br)c(Nc3ccc(-c4cnn(C)n4)cc3P(C)(C)=O)n2)c(OC)cc1N1CCC(N2CCOCC2)CC1` [Compound K-040, (2-((5-Bromo-2-((5-ethyl-2-methoxy-4-(4-morpholinopiperidin-1-yl)phenyl)amino)pyrimidin-4-yl)amino)-5-(2-methyl-2H-1,2,3-triazol-4-yl)phenyl)dimethylphosphine oxide], for which the IC50 at EGFR WT worked out at 0.0245 µM; at IGF1R, 0.134 µM; in the assay with A431, 6.63 µM; against EGFRΔ19del/T790M/C797S, 0.0003 µM. In addition, the GI50 stood at 0.302 µM in assay [1] and 0.0145 µM in assay [2].
As to `CCc1cc(Nc2ncc(Br)c(Nc3ccc(-c4cnn(C)c4)c(OC)c3P(C)(C)=O)n2)c(OC)cc1N1CCC(N2CCN(C)CC2)CC1` [Compound K-041, (6-((5-Bromo-2-((5-ethyl-2-methoxy-4-(4-(4-methylpiperazin-1-yl)piperidin-1-yl)phenyl)amino)pyrimidin-4-yl)amino)-2-methoxy-3-(1-methyl-1H-pyrazol-4-yl)phenyl)dimethylphosphine oxide], the IC50 at EGFR WT was 0.0122 µM; at IGF1R, 0.0147 µM; in the assay with A431, 0.317 µM; at EGFRΔ19del/T790M/C797S, 0.0004 µM. The GI50 amounted to 0.147 µM in assay [1] and 0.0158 µM in assay [2].
Turning to `CCc1cc(Nc2ncc(Br)c(Nc3ccc(-c4cnn(C)c4)cc3P(C)(C)=O)n2)c(OC)cc1N1CCC(N2CCOCC2)CC1` [Compound K-042, (2-((5-Bromo-2-((5-ethyl-2-methoxy-4-(4-morpholinopiperidin-1-vi)phenyl)amino)pyrimidin-4-yl)amino)-5-(1-methyl-1-pyrazol-4-yl)phenyl)-dimethylphosphine oxide], the IC50 against EGFR WT was 0.0159 µM; on IGF1R it was 0.071 µM; in the assay with A431, 0.815 µM; at EGFRΔ19del/T790M/C797S, 0.0004 µM. The values for the GI50 in assay [1] and in assay [2] were 0.206 µM and 0.0043 µM, respectively.
On to `CCCc1cc(Nc2ncc(Br)c(Nc3ccc(-c4cnn(C)c4)cc3P(C)(C)=O)n2)c(OC)cc1N1CCC(N2CCN(C)CC2)CC1` [Compound K-043, (2-((5-Bromo-2-((2-methoxy-4-(4-(4-methylpiperazin-1-yl)piperidin-1-yl)-5-propylphenyl)amino)pyrimidin-4-yl)amino)-5-(1-methyl-1H-pyrazol-4-yl)phenyl)dimethylphosphine oxide], for which the IC50 was 0.0142 µM against EGFR WT, 0.0302 µM at IGF1R, 0.456 µM in the assay with A431 and 0.0005 µM against EGFRΔ19del/T790M/C797S. Moreover, the figures for the GI50 in assay [1] and in assay [2] were 0.127 µM and 0.0043 µM, respectively.
In the case of `CCc1cc(Nc2ncc(Br)c(Nc3ccc(-c4cnn(C)c4)cc3P(C)(C)=O)n2)c(OC)cc1N1CCC(N(C)C)CC1` [Compound K-044, (2-((5-Bromo-2-((4-(4-(dimethylamino)piperidin-1-yl)-5-ethyl-2-methoxyphenyl)amino)pyrimidin-4-yl)amino)-5-(1-methyl-1H-pyrazol-4-yl)phenyl)dimethylphosphine oxide], the IC50 on EGFR WT was 0.0082 µM; at IGF1R, 0.0382 µM; with A431, 0.28 µM; on EGFRΔ19del/T790M/C797S, 0.0003 µM. Moreover, the GI50 in assay [1] was determined as 0.166 µM; in assay [2] it was 0.0038 µM.
`CCc1cc(Nc2ncc(Br)c(Nc3ccc(-c4cnn(C)c4)c(C)c3P(C)(C)=O)n2)c(OC)cc1N1CCC(N2CCN(C)CC2)CC1` [Compound K-046, (6-((5-Bromo-2-((5-ethyl-2-methoxy-4-(4-(4-methylpiperazin-1-yl)piperidin-1-yl)phenyl)amino)pyrimidin-4-yl)amino)-2-methyl-3-(1-methyl-1H-pyrazol-4-yl)phenyl)dimethylphosphine oxide]: the IC50 amounted to 0.0099 µM against EGFR WT, 0.0287 µM at IGF1R, 0.306 µM with A431 and 0.0005 µM at EGFRΔ19del/T790M/C797S. Further, the GI50 in assay [1] worked out at 0.0348 µM; in assay [2] it was 0.0076 µM.
Regarding `CCc1cc(Nc2ncc(Br)c(Nc3ccc(-c4ccccc4)cc3P(C)(C)=O)n2)c(OC)cc1N1CCC(N2CCOCC2)CC1` [Compound K-047, (4-((5-Bromo-2-((5-ethyl-2-methoxy-4-(4-morpholinopiperidin-1-yl)phenyl)amino)pyrimidin-4-yl)amino)-[1,1′-biphenyl]-3-yl)dimethylphosphine oxide], the IC50 on EGFR WT came out at 0.043 µM; on IGF1R it was 0.217 µM; in the assay on A431, 12.6 µM; at EGFRΔ19del/T790M/C797S, 0.0008 µM. For the same compound, the GI50 in assay [1] was found to be 0.0956 µM; in assay [2], 0.0298 µM.
